Values quoted from earlier work, collected in PMC1892056, “Barusiban suppresses oxytocin-induced preterm labour in non-human primates” (BMC Pregnancy and Childbirth, 2007).
Several values for one entry are separate records, joined by “and”; a condition that tells them apart may be missing. Identical values can stand only once. Like-named read-outs stand apart in the source and are kept apart here.

What was measured:
[1] = system: pregnant cynomolgus monkeys; design: method as in PMID 16914691; details: for Treatment days until delivery / end of treatment: continuous IV infusion from ca. GD 141, daily OT challenge, barusiban group delivered after the end of treatment; for Basal overall IUP before the daily OT challenges compared to control: during continuous barusiban or fenoterol treatment; for Day of delivery: gestational day, barusiban 150 μg kg^-1 h^-1 or fenoterol 3 μg kg^-1 h^-1 continuous infusion from ca. GD 141, daily OT challenge
Source text: Background Preterm labour (PTL) is a major cause of neonatal mortality and morbidity, and oxytocin (OT) antagonists are potential tocolytics. Atosiban (TRACTOCILE) is a mixed vasopressin V1A/OT antagonist registered for acute treatment of PTL in Europe. […] Barusiban is a selective OT antagonist which has reached clinical development. A monkey model with OT-induced PTL was developed to compare barusiban and atosiban. In addition, the feasibility for long-term treatment of PTL with barusiban was explored.

[2] = pregnant cynomolgus monkeys, IV high- or low-dose bolus or infusion, plasma, LC-MS/MS
Source text: Table 1 Summary of barusiban and atosiban PK/PD characteristics | column: Barusiban; Atosiban

[3] = system: pregnant cynomolgus monkeys; details: for Potency (IC50): calculated PK/PD potency (plasma concentration) for inhibition of OT-induced IUP, IV bolus or infusion; for Duration of action / Efficacy (decrease in IUP) / Onset of action: overall results for IV high- or low-dose bolus or infusion; for Duration of effect on IUP after high-dose infusion: two-hour high-dose IV infusion, barusiban 150 μg kg^-1 h^-1, atosiban 250 μg kg^-1 h^-1
Source text: Table 1 Summary of barusiban and atosiban PK/PD characteristics | column: Barusiban; Atosiban || Background Preterm labour (PTL) is a major cause of neonatal mortality and morbidity, and oxytocin (OT) antagonists are potential tocolytics. Atosiban (TRACTOCILE) is a mixed vasopressin V1A/OT antagonist registered for acute treatment of PTL in Europe. Other off-label drugs have serious side effects. Barusiban is a selective OT antagonist which has reached clinical development. A monkey model with OT-induced PTL was developed to compare barusiban and atosiban. In addition, the feasibility for long-term treatment of PTL with barusiban was explored. Methods Conscious pregnant cynomolgus monkeys ... || Following induction of stable contractions by OT, barusiban or atosiban were administered as high- or low-dose bolus or infusion. […] However, barusiban's duration of action was generally longer than 13–15 hours, while atosiban's effect ceased within 1.5–3 hours (Table 1). The calculated potency of barusiban was about four times higher than the potency of atosiban. || (+ 1 further places)

human cloned OT receptor = details: selectivity OT receptor over V1A receptor
Source text: Barusiban is a new long-acting OT receptor antagonist developed for PTL. It is a cyclic heptapeptide and an analogue of endogenous OT designed for longer duration of action. This could provide the convenience of less frequent administration in the clinic. Barusiban has approximately 300-fold greater affinity for the human cloned OT receptor than for the V1A receptor, whereas atosiban binds well to both receptors. […] It has reached phase II of clinical developmen ...

[4] = system: pregnant cynomolgus monkeys
Source text: Background Preterm labour (PTL) is a major cause of neonatal mortality and morbidity, and oxytocin (OT) antagonists are potential tocolytics. Atosiban (TRACTOCILE) is a mixed vasopressin V1A/OT antagonist registered for acute treatment of PTL in Europe. Other off-label drugs have serious side effects. Barusiban is a selective OT antagonist which has reached clinical development. A monkey model with OT-induced PTL was developed to compare barusiban and atosiban. In addition, the feasibility for long-term treatment of PTL with barusiban was explored. Methods Conscious pregnant cynomolgus monkeys ... || Figure 2 Oxytocin-induced uterine contractions in cynomolgus monkeys. Individual infusion of 5–90 mU OT kg^-1 h^-1 induced stable uterine contractions of about 15–40 mmHg. No short- or long-term desensitisation of OT-induced contractions was observed. On the background of these stable OT-induced contractions, different tocolytics have been evaluated in terms of their PK/PD characteristics. Here two monkeys were infused in parallel for about 11 hours during the night. The switch-off the lights in the evening (06:00 PM) and switch-on the lights (06:00 AM) is labelled by respective symbols.

[5] = pregnant cynomolgus monkeys, OT-induced contractions

Row | Compound | Treatment days until delivery / end of treatment [1] | Basal overall IUP before the daily OT challenges compared to control [1] | Day of delivery [1] [days] | Clearance [2] [mL/min/kg] | Distribution [2] [mL/kg] | Half-life [2] [min] | Potency (IC50) [3] [µg/mL] | Duration of action [3, 5] [h] | Onset of action [3, 5] [h] | Duration of effect on IUP after high-dose infusion ([3]; n = 3) | also measured
1 | CC(Cc1ccc(O)cc1)NCC(O)c1cc(O)cc(O)c1 (stereo not drawn) [fenoterol, reference compound] | ~17 days | unchanged | ~154 | – | – | – | – | – | – | – | –
2 | Atosiban [reference compound] | – | – | – | 8.98 to 15.6 | 359 to 640 | 27.6 to 39.6 | 0.0474 | 1 to 3 | ≤0.5 to 1.0 | 3 h | Efficacy (decrease in IUP) [3, 5]: ≤96%; Efficacy (decrease in IUP) ([3]; pregnant cynomolgus monkeys, OT-induced contractions, listed as atosiban): > 95%
3 | Barusiban | approximately 23 days | unchanged | ~163 | 0.417 to 1.1 | 70 to 159 | 87.6 to 154 | 0.0127 | > 13 to 15 | ≤0.5 to 1.5 | more than 14 h | Potency relative to atosiban ([3]; calculated potency of barusiban versus atosiban, OT-induced contractions): about four; Reversibility of inhibition of contractions ([3]; high-dose barusiban bolus, then escalating high-dose OT rescue infusion (133–2000 mU kg^-1 h^-1)): reversible with high-dose OT; Tolerability ([3]; pregnant cynomolgus monkeys): well tolerated; Duration of action ([3]; pregnant cynomolgus monkeys, OT-induced contractions, listed as barusiban): 13 to 15 h and > 13 h; Time to decrease in IUP compared with OT control levels ([3]; two hour high-dose IV infusion of barusiban at 150 μg kg^-1 h^-1, n = 3): ≤ 0.5 h; Affinity for the human cloned OT receptor relative to the V1A receptor (human cloned OT receptor): approximately 300 fold; Days with statistically lower IUP than the control group ([1]; barusiban 150 μg kg^-1 h^-1 continuous IV infusion, daily 3–6 h OT infusion): 8/17; Rise in overall IUP during OT infusion ([1]; barusiban 150 μg kg^-1 h^-1 continuous infusion, OT control about fourfold increase): 30%; Days with statistically lower IUP than the fenoterol group ([1]; barusiban 150 μg kg^-1 h^-1 versus fenoterol 3 μg kg^-1 h^-1, continuous IV infusion, daily 3–6 h OT infusion): 11/17
4 | oxytocin [OT] | – | – | – | – | – | – | – | – | – | – | Desensitisation of OT-induced contractions ([4]; OT infusion 5–90 mU kg^-1 h^-1, short- and long-term): no OT-related desensitization occurred; Induced uterine contractions (IUP) ([4]; individual OT infusions at 5–90 mU kg^-1 h^-1): 15–40 mmHg
